≈ marks a conversion by molar mass, not a printed value.
Columns and labels:
[1] = Water solubility of isovaleramide and dose number; type: physicochemical
Method: The water solubility of the drug substance as used herein, is defined according to its dose number, Do, for oral drug delivery. The dose number for a drug is defined by the ratio of its dose concentration to its saturation solubility in a reference fluid according to the following calculation: [formula]
where: Mo is the dose of the drug (mg), Vo is the reference fluid volume (mL) and Cs is the saturation solubility of the drug in the reference fluid (mg/mL) at 37° C. Representative reference fluids for oral drug delivery are aqueous based solutions within the relevant physiologic pH range of the gastrointestinal tract (i.e., pH 1-pH 7.5). A representative reference fluid volume for oral drug delivery is 250 mL. A drug substance is considered to be highly soluble if at its highest dose the Do value is ≦1. […] The solubility of isovaleramide in water at 37° C. is approximately 70 mg/mL. The upper range of a single daily dose of isovaleramide could be 1200 mg to 2400 mg. The Do number range for isovaleramide, calculated using a reference volume of 250 mL and the single daily dose range of 1200 mg to 2400 mg, is 0.07 to 0.14.

[2] = Isothermal thermogravimetric analysis (TGA) of sublimation; type: physicochemical
Method: The temperature dependent physical instability of the drug substance was studied in detail in order to determine the appropriate pharmaceutical formulation processes and temperature ranges suitable for the preparation of the pharmaceutical compositions of isovaleramide. An automated thermogravimetric analysis (TGA) method was used to determine the relative rates of isovaleramide sublimation. Isothermal TGA was conducted at 30° C., 35° C., 40° C., 45° C., 50° C. and 60° C. for 24 hours. Samples were prepared by first taring a platinum TGA pan on the TGA system. A sample amount of isovaleramide of 10 mg-15 mg was then added to the pan and distributed evenly. The sample pan was then loaded onto the TGA autosampler for subsequent analysis. Samples were initially equilibrated at their respective isothermal temperature and then monitored for 24 hours. Data sampling was accomplished at a rate of 600 seconds/point. Sample replicates ranged from 1 to 3. TGA instrument and operating conditions were as follows: […]

CC(C)CC(N)=O [Isovaleramide, isovaleramide]
pH dependence of solubility ([1]; physiologic pH range of the gastrointestinal tract): pH independent solubility
solubility ([1]; water, 37° C.): ~70 mg/mL (≈ 692 mM)
Reduction in Weight % ([2]; isothermal 30° C., 1 hr): 0.05%
Reduction in Weight % ([2]; isothermal 30° C., 3 hr): 0.12%
Reduction in Weight % ([2]; isothermal 30° C., 6 hr): 0.25%
Reduction in Weight % ([2]; isothermal 30° C., 9 hr): 0.41%
Reduction in Weight % ([2]; isothermal 30° C., 12 hr): 0.62%
Reduction in Weight % ([2]; isothermal 30° C., 15 hr): 0.82%
Reduction in Weight % ([2]; isothermal 30° C., 18 hr): 1.01%
Reduction in Weight % ([2]; isothermal 30° C., 21 hr): 1.20%
Reduction in Weight % ([2]; isothermal 30° C., 24 hr): 1.32%
Reduction in Weight % ([2]; isothermal 35° C., 1 hr, mean of three): 0.10%
Reduction in Weight % ([2]; isothermal 35° C., 3 hr, mean of three): 0.28%
Reduction in Weight % ([2]; isothermal 35° C., 6 hr, mean of three): 0.55%
Reduction in Weight % ([2]; isothermal 35° C., 9 hr, mean of three): 0.83%
Reduction in Weight % ([2]; isothermal 35° C., 12 hr, mean of three): 1.12%
Reduction in Weight % ([2]; isothermal 35° C., 15 hr, mean of three): 1.41%
Reduction in Weight % ([2]; isothermal 35° C., 18 hr, mean of three): 1.67%
Reduction in Weight % ([2]; isothermal 35° C., 21 hr, mean of three): 1.92%
Reduction in Weight % ([2]; isothermal 35° C., 24 hr, mean of three): 2.17%
Reduction in Weight % ([2]; isothermal 40° C., 1 hr, mean of three): 0.14%
Reduction in Weight % ([2]; isothermal 40° C., 3 hr, mean of three): 0.53%
Reduction in Weight % ([2]; isothermal 40° C., 6 hr, mean of three): 1.10%
Reduction in Weight % ([2]; isothermal 40° C., 9 hr, mean of three): 1.65%
Reduction in Weight % ([2]; isothermal 40° C., 12 hr, mean of three): 2.27%
Reduction in Weight % ([2]; isothermal 40° C., 15 hr, mean of three): 2.83%
Reduction in Weight % ([2]; isothermal 40° C., 18 hr, mean of three): 3.43%
Reduction in Weight % ([2]; isothermal 40° C., 21 hr, mean of three): 4.02%
Reduction in Weight % ([2]; isothermal 40° C., 24 hr, mean of three): 4.58%
Reduction in Weight % ([2]; isothermal 45° C., 1 hr): 0.27%
Reduction in Weight % ([2]; isothermal 45° C., 3 hr): 0.91%
Reduction in Weight % ([2]; isothermal 45° C., 6 hr): 1.97%
Reduction in Weight % ([2]; isothermal 45° C., 9 hr): 2.95%
Reduction in Weight % ([2]; isothermal 45° C., 12 hr): 3.95%
Reduction in Weight % ([2]; isothermal 45° C., 15 hr): 4.98%
Reduction in Weight % ([2]; isothermal 45° C., 18 hr): 6.02%
Reduction in Weight % ([2]; isothermal 45° C., 21 hr): 7.05%
Reduction in Weight % ([2]; isothermal 45° C., 24 hr): 8.01%
Reduction in Weight % ([2]; isothermal 50° C., 1 hr): 0.54%
Reduction in Weight % ([2]; isothermal 50° C., 3 hr): 1.65%
Reduction in Weight % ([2]; isothermal 50° C., 6 hr): 3.35%
Reduction in Weight % ([2]; isothermal 50° C., 9 hr): 5.05%
Reduction in Weight % ([2]; isothermal 50° C., 12 hr): 6.68%
Reduction in Weight % ([2]; isothermal 50° C., 15 hr): 8.35%
Reduction in Weight % ([2]; isothermal 50° C., 18 hr): 10.04%
Reduction in Weight % ([2]; isothermal 50° C., 21 hr): 11.77%
Reduction in Weight % ([2]; isothermal 50° C., 24 hr): 13.43%
Reduction in Weight % ([2]; isothermal 60° C., 1 hr, mean of three): 1.98%
Reduction in Weight % ([2]; isothermal 60° C., 3 hr, mean of three): 5.96%
Reduction in Weight % ([2]; isothermal 60° C., 6 hr, mean of three): 11.90%
Reduction in Weight % ([2]; isothermal 60° C., 9 hr, mean of three): 17.79%
Reduction in Weight % ([2]; isothermal 60° C., 12 hr, mean of three): 23.61%
Reduction in Weight % ([2]; isothermal 60° C., 15 hr, mean of three): 29.37%
Reduction in Weight % ([2]; isothermal 60° C., 18 hr, mean of three): 35.03%
Reduction in Weight % ([2]; isothermal 60° C., 21 hr, mean of three): 40.53%
Reduction in Weight % ([2]; isothermal 60° C., 24 hr, mean of three): 44.74%

Reference: patent US20070134315A1, “Orally administrable extended release pellet and tablet formulations of a highly water soluble compound” (priority 2005, published 2007)
